Experimental data: patent US6747033B2, “Fungicidal triazolopyrimid-7-ylideneamines” (BASF Aktiengesellschaft, priority 2000, dated 2004)
Like-named read-outs stand apart in the source and are kept apart here.

Columns and labels:
Venturia inaequalis = experiment: In vivo fungicidal activity, Apple Scab (AS); note: ranges in brackets are in %
Plasmopara viticola = experiment: In vivo fungicidal activity, Grape downy mildew (GDM); note: ranges in brackets are in %
Botrytis cinera = experiment: In vivo fungicidal activity, Pepper Botrytis (PB); note: ranges in brackets are in %
[1] = system: Pyricularia grisea f. sp. oryzae; type: in vivo; conditions: Rice Blast
Cercospora beticola = experiment: In vivo fungicidal activity, Sugar Beet Cercospora (SBC); note: ranges in brackets are in %
Alternara solani = experiment: In vivo fungicidal activity, Tomato early blight (TEB); note: ranges in brackets are in %
Blumeria graminis = experiment: In vivo fungicidal activity, Wheat powdery mildew (WPM); note: ranges in brackets are in %
[2] = system: Pseudocercosporella herpotrichoides; experiment: In vitro fungicidal activity, Cereal eye spot (PSDCHE); type: cell-based; set-up: key: 0: None; 3: slight; 5: moderate; 7: severe; 9: complete; conditions: 3-7 days of incubation
Experimental: (§1) Test compounds are dissolved in acetone to give concentrations of 25, 10 and 1 ppm and are added to individual cell Walls (24-cell-well plates, Corning), which were previously filled with a suspension of ground plates, Corning), which were previously filled with a suspension of ground fungal mycelium in a chemically defined growth medium. After 3-7 days of incubation, inhibition of […] growth is recorded using the following scale: The data obtained are shown in Table II. [table]

Pythium ultimum = experiment: In vitro fungicidal activity, Fruit rot (PYTHUL); type: cell-based; set-up: key: 0: None; 3: slight; 5: moderate; 7: severe; 9: complete; conditions: 3-7 days of incubation
Experimental: as §1

Rhizoctonia solani = experiment: In vitro fungicidal activity, Rice sheath blight (RHIZSO); type: cell-based; set-up: key: 0: None; 3: slight; 5: moderate; 7: severe; 9: complete; conditions: 3-7 days of incubation
Experimental: as §1

CCn1cnn2c(=NC(C)C(F)(F)F)c(-c3c(F)cc(F)cc3F)c(Cl)nc12 (stereo not drawn) [Example 10]
AS disease control rating (Venturia inaequalis; 12.5 ppm spray): 0 (0) | AS disease control rating (Venturia inaequalis; 50 ppm spray): 0 (0) | AS disease control rating (Venturia inaequalis; 200 ppm spray): 6 (75-89) | GDM disease control rating (Plasmopara viticola; 12.5 ppm spray): 0 (0) | GDM disease control rating (Plasmopara viticola; 50 ppm spray): 0 (0) | GDM disease control rating (Plasmopara viticola; 200 ppm spray): 0 (0) | PB disease control rating (Botrytis cinera; 12.5 ppm spray): 4 (45-59) | PB disease control rating (Botrytis cinera; 50 ppm spray): 0 (0) | PB disease control rating (Botrytis cinera; 200 ppm spray): 0 (0) | RB disease control rating ([1]; 12.5 ppm spray): 0 (0) | RB disease control rating ([1]; 50 ppm spray): 4 (45-59) | RB disease control rating ([1]; 200 ppm spray): 6 (75-89) | SBC disease control rating (Cercospora beticola; 12.5 ppm spray): 3 (30-44) | SBC disease control rating (Cercospora beticola; 50 ppm spray): 6 (75-89) | SBC disease control rating (Cercospora beticola; 200 ppm spray): 6 (75-89) | TEB disease control rating (Alternara solani; 12.5 ppm spray): 0 (0) | TEB disease control rating (Alternara solani; 50 ppm spray): 4 (45-59) | TEB disease control rating (Alternara solani; 200 ppm spray): 5 (60-74) | WPM disease control rating (Blumeria graminis; 12.5 ppm spray): 0 (0) | WPM disease control rating (Blumeria graminis; 50 ppm spray): 0 (0) | WPM disease control rating (Blumeria graminis; 200 ppm spray): 0 (0) | PSDCH inhibition of mycelial growth rating ([2]; 1 ppm): 0 | PSDCH inhibition of mycelial growth rating ([2]; 10 ppm): 0 | PSDCH inhibition of mycelial growth rating ([2]; 25 ppm): 0 | PYTHU inhibition of mycelial growth rating (Pythium ultimum; 1 ppm): 0 | PYTHU inhibition of mycelial growth rating (Pythium ultimum; 10 ppm): 3 | PYTHU inhibition of mycelial growth rating (Pythium ultimum; 25 ppm): 5 | RHIZSO inhibition of mycelial growth rating (Rhizoctonia solani; 1 ppm): 0 | RHIZSO inhibition of mycelial growth rating (Rhizoctonia solani; 10 ppm): 5 | RHIZSO inhibition of mycelial growth rating (Rhizoctonia solani; 25 ppm): 5

Cn1c(Cl)c(-c2c(F)cc(F)cc2F)c(=NCC(F)(F)F)n2ncnc12 [Example 8]
AS disease control rating (Venturia inaequalis; 12.5 ppm spray): 0 (0) | AS disease control rating (Venturia inaequalis; 50 ppm spray): 0 (0) | AS disease control rating (Venturia inaequalis; 200 ppm spray): 5 (60-74) | GDM disease control rating (Plasmopara viticola; 12.5 ppm spray): 5 (60-74) | GDM disease control rating (Plasmopara viticola; 50 ppm spray): 4 (45-59) | GDM disease control rating (Plasmopara viticola; 200 ppm spray): 5 (60-74) | PB disease control rating (Botrytis cinera; 12.5 ppm spray): 0 (0) | PB disease control rating (Botrytis cinera; 50 ppm spray): 0 (0) | PB disease control rating (Botrytis cinera; 200 ppm spray): 0 (0) | RB disease control rating ([1]; 12.5 ppm spray): 0 (0) | RB disease control rating ([1]; 50 ppm spray): 0 (0) | RB disease control rating ([1]; 200 ppm spray): 4 (45-59) | TEB disease control rating (Alternara solani; 12.5 ppm spray): 2 (15-29) | TEB disease control rating (Alternara solani; 50 ppm spray): 0 (0) | TEB disease control rating (Alternara solani; 200 ppm spray): 0 (0) | WPM disease control rating (Blumeria graminis; 12.5 ppm spray): 2 (15-29) | WPM disease control rating (Blumeria graminis; 50 ppm spray): 4 (45-59) | WPM disease control rating (Blumeria graminis; 200 ppm spray): 7 (90-95) | PSDCH inhibition of mycelial growth rating ([2]; 1 ppm): 0 | PSDCH inhibition of mycelial growth rating ([2]; 10 ppm): 0 | PSDCH inhibition of mycelial growth rating ([2]; 25 ppm): 0 | PYTHU inhibition of mycelial growth rating (Pythium ultimum; 1 ppm): 0 | PYTHU inhibition of mycelial growth rating (Pythium ultimum; 10 ppm): 0 | PYTHU inhibition of mycelial growth rating (Pythium ultimum; 25 ppm): 0 | RHIZSO inhibition of mycelial growth rating (Rhizoctonia solani; 1 ppm): 7 | RHIZSO inhibition of mycelial growth rating (Rhizoctonia solani; 10 ppm): 7 | RHIZSO inhibition of mycelial growth rating (Rhizoctonia solani; 25 ppm): 7

CCCn1cnn2c(=NC(C)C(F)(F)F)c(-c3c(F)cc(OC)cc3F)c(Cl)nc12 (stereo not drawn) [Example 12]
AS disease control rating (Venturia inaequalis; 12.5 ppm spray): 0 (0) | AS disease control rating (Venturia inaequalis; 50 ppm spray): 0 (0) | AS disease control rating (Venturia inaequalis; 200 ppm spray): 0 (0) | GDM disease control rating (Plasmopara viticola; 12.5 ppm spray): 0 (0) | GDM disease control rating (Plasmopara viticola; 50 ppm spray): 0 (0) | GDM disease control rating (Plasmopara viticola; 200 ppm spray): 0 (0) | PB disease control rating (Botrytis cinera; 12.5 ppm spray): 0 (0) | PB disease control rating (Botrytis cinera; 50 ppm spray): 0 (0) | PB disease control rating (Botrytis cinera; 200 ppm spray): 0 (0) | RB disease control rating ([1]; 12.5 ppm spray): 0 (0) | RB disease control rating ([1]; 50 ppm spray): 0 (0) | RB disease control rating ([1]; 200 ppm spray): 0 (0) | SBC disease control rating (Cercospora beticola; 12.5 ppm spray): 0 (0) | SBC disease control rating (Cercospora beticola; 50 ppm spray): 0 (0) | SBC disease control rating (Cercospora beticola; 200 ppm spray): 0 (0) | TEB disease control rating (Alternara solani; 12.5 ppm spray): 0 (0) | TEB disease control rating (Alternara solani; 50 ppm spray): 0 (0) | TEB disease control rating (Alternara solani; 200 ppm spray): 0 (0) | WPM disease control rating (Blumeria graminis; 12.5 ppm spray): 0 (0) | WPM disease control rating (Blumeria graminis; 50 ppm spray): 0 (0) | WPM disease control rating (Blumeria graminis; 200 ppm spray): 0 (0)

CCCn1c(Cl)c(-c2c(F)cc(OC)cc2F)c(=NC(C)C(F)(F)F)n2ncnc12 (stereo not drawn) [Example 4]
AS disease control rating (Venturia inaequalis; 3.1 ppm spray): 0 (0) | AS disease control rating (Venturia inaequalis; 12.5 ppm spray): 0 (0) | AS disease control rating (Venturia inaequalis; 50 ppm spray): 0 (0) | GDM disease control rating (Plasmopara viticola; 3.1 ppm spray): 4 (45-59) | GDM disease control rating (Plasmopara viticola; 12.5 ppm spray): 0 (0) | GDM disease control rating (Plasmopara viticola; 50 ppm spray): 0 (0) | PB disease control rating (Botrytis cinera; 3.1 ppm spray): 0 (0) | PB disease control rating (Botrytis cinera; 12.5 ppm spray): 0 (0) | PB disease control rating (Botrytis cinera; 50 ppm spray): 0 (0) | RB disease control rating ([1]; 3.1 ppm spray): 0 (0) | RB disease control rating ([1]; 12.5 ppm spray): 0 (0) | RB disease control rating ([1]; 50 ppm spray): 0 (0) | SBC disease control rating (Cercospora beticola; 3.1 ppm spray): 0 (0) | SBC disease control rating (Cercospora beticola; 12.5 ppm spray): 0 (0) | SBC disease control rating (Cercospora beticola; 50 ppm spray): 0 (0) | TEB disease control rating (Alternara solani; 3.1 ppm spray): 3 (30-44) | TEB disease control rating (Alternara solani; 12.5 ppm spray): 0 (0) | TEB disease control rating (Alternara solani; 50 ppm spray): 0 (0) | WPM disease control rating (Blumeria graminis; 3.1 ppm spray): 0 (0) | WPM disease control rating (Blumeria graminis; 12.5 ppm spray): 0 (0) | WPM disease control rating (Blumeria graminis; 50 ppm spray): 0 (0)

CCCn1c(Cl)c(-c2c(F)cc(F)cc2F)c(=NC(C)C(F)(F)F)n2ncnc12 (stereo not drawn) [Example 2]
AS disease control rating (Venturia inaequalis; 12.5 ppm spray): 0 (0) | AS disease control rating (Venturia inaequalis; 50 ppm spray): 0 (0) | AS disease control rating (Venturia inaequalis; 200 ppm spray): 5 (60-74) | GDM disease control rating (Plasmopara viticola; 12.5 ppm spray): 4 (45-59) | GDM disease control rating (Plasmopara viticola; 50 ppm spray): 2 (15-29) | GDM disease control rating (Plasmopara viticola; 200 ppm spray): 1 (1-14) | PB disease control rating (Botrytis cinera; 12.5 ppm spray): 1 (1-14) | PB disease control rating (Botrytis cinera; 50 ppm spray): 1 (1-14) | PB disease control rating (Botrytis cinera; 200 ppm spray): 1 (1-14) | RB disease control rating ([1]; 12.5 ppm spray): 0 (0) | RB disease control rating ([1]; 50 ppm spray): 0 (0) | RB disease control rating ([1]; 200 ppm spray): 0 (0) | SBC disease control rating (Cercospora beticola; 12.5 ppm spray): 0 (0) | SBC disease control rating (Cercospora beticola; 50 ppm spray): 0 (0) | SBC disease control rating (Cercospora beticola; 200 ppm spray): 3 (30-44) | TEB disease control rating (Alternara solani; 12.5 ppm spray): 0 (0) | TEB disease control rating (Alternara solani; 50 ppm spray): 0 (0) | TEB disease control rating (Alternara solani; 200 ppm spray): 0 (0) | WPM disease control rating (Blumeria graminis; 12.5 ppm spray): 0 (0) | WPM disease control rating (Blumeria graminis; 50 ppm spray): 0 (0) | WPM disease control rating (Blumeria graminis; 200 ppm spray): 0 (0)

CC(N=c1c(-c2ccccc2Cl)c(Cl)n(C)c2ncnn12)C(F)(F)F (stereo not drawn) [Example 6]
AS disease control rating (Venturia inaequalis; 12.5 ppm spray): 0 (0) | AS disease control rating (Venturia inaequalis; 50 ppm spray): 0 (0) | AS disease control rating (Venturia inaequalis; 200 ppm spray): 5 (60-74) | GDM disease control rating (Plasmopara viticola; 12.5 ppm spray): 0 (0) | GDM disease control rating (Plasmopara viticola; 50 ppm spray): 0 (0) | GDM disease control rating (Plasmopara viticola; 200 ppm spray): 7 (90-95) | PB disease control rating (Botrytis cinera; 12.5 ppm spray): 0 (0) | PB disease control rating (Botrytis cinera; 50 ppm spray): 0 (0) | PB disease control rating (Botrytis cinera; 200 ppm spray): 0 (0) | RB disease control rating ([1]; 12.5 ppm spray): 0 (0) | RB disease control rating ([1]; 50 ppm spray): 0 (0) | RB disease control rating ([1]; 200 ppm spray): 5 (60-74) | TEB disease control rating (Alternara solani; 12.5 ppm spray): 0 (0) | TEB disease control rating (Alternara solani; 50 ppm spray): 0 (0) | TEB disease control rating (Alternara solani; 200 ppm spray): 0 (0) | WPM disease control rating (Blumeria graminis; 12.5 ppm spray): 0 (0) | WPM disease control rating (Blumeria graminis; 50 ppm spray): 0 (0) | WPM disease control rating (Blumeria graminis; 200 ppm spray): 5 (60-74) | PSDCH inhibition of mycelial growth rating ([2]; 1 ppm): 0 | PSDCH inhibition of mycelial growth rating ([2]; 10 ppm): 1 | PSDCH inhibition of mycelial growth rating ([2]; 25 ppm): 0 | PYTHU inhibition of mycelial growth rating (Pythium ultimum; 1 ppm): 0 | PYTHU inhibition of mycelial growth rating (Pythium ultimum; 10 ppm): 0 | PYTHU inhibition of mycelial growth rating (Pythium ultimum; 25 ppm): 0 | RHIZSO inhibition of mycelial growth rating (Rhizoctonia solani; 1 ppm): 0 | RHIZSO inhibition of mycelial growth rating (Rhizoctonia solani; 10 ppm): 0 | RHIZSO inhibition of mycelial growth rating (Rhizoctonia solani; 25 ppm): 0
